According to US5750389A, “Purified saccharose-synthase, process for its production and its use” (Forschungszentrum Julich GmbH, priority 1992, dated 1998):

Assays:
[1] = system: purified sucrose-synthase from rice; assay: Substrate spectrum of the sucrose-synthase for the splitting reaction (saccharide + UDP); format: biochemical; conditions: for Relative Activity %: substrate splitting with UDP, 2 mM UDP, saccharide 75 to 500 mM, 3 h at 30° C., pH 7.2, Saccharose = 100; for replacement of saccharose in the splitting reaction (in words): Table 3
Procedure: 11. Substrate Spectrum of the Sucrose-Synthase for the splitting reaction (I)
For the splitting reaction of the sucrose-synthase, sucrose was replaced by other disaccharide or trisaccharide:
α-Glc 1-2 β-Fruc+UDP (TDP) UDP-Glc (TDP-Glc)
The concentration of the saccharide amounted to 75 to 500 mM in the reaction composition. 2 mM UDP or TDP and as a rule 10 to 80 mU enzyme were introduced. After 3 h at 30° C. and pH 7.2 (200 mM Hepes-NaOH), the reaction was stopped at 95° C. 5 min. The formation of nucleotide sugars was followed with HPLC and compared with a control (without enzyme).

[2] = system: purified Sucrose-synthase; assay: Substrate spectrum of the nucleosidediphosphate; format: biochemical, rice; conditions: pH 7.2, 30° C., FIG. 2
Procedure: 1. Substrate spectrum of the nucleosidediphosphate.
UDP, TDP, CDP, ADP and GDP were investigated. The reaction compositions contained:
100 μl Nucleosidediphosphate (15-90 mM)
100 μl purified Sucrose-synthase (21.1 mU/ml)
The reaction composition was incubated at 30° C. and stopped at different times (5 min. at 95° C.). After filtration of the sample through a 0.22 μm filter, the resulting nucleotide sugar was analyzed by means of ionpair HPLC.

[3] = system: rice enzyme (sucrose-synthase); assay: Kinetics (Vmax, Km) of the splitting reaction; format: biochemical; conditions: sucrose 500 mM; for Km: UDP or TDP varied 0 to 10 mM, 1 h at 30° C., pH 6.5
Procedure: […] All reaction mixtures were incubated for 1 h at 30° C. and pH 6.5 (Hepes-NaOH 200 mM). The samples were treated as described above and analyzed with HPLC. […] The substrate excess inhibition can be countered by higher enzyme quantities.

[4] = system: purified sucrose-synthase from rice; assay: Substrate spectrum for the synthesis of disaccharides: variation of the acceptor, reacted with UDP-glucose; format: biochemical; conditions: for Relative Activity %: acceptor substrates reacted with UDP-glucose, D-fructose = 100
Procedure: 12. Substrate Spectrum of the Saccharose-synthase from rice for the synthesis of Disaccharides.
B: Variation of the Acceptor.
For the synthesis reaction, the acceptor was varied. Apart from the natural acceptor, other diastereomers of D-fructose, like D-psicose, D-tagatose, D-sorbose were introduced. Further, several keytoses were systematically tested. Apart from Aldoses, nonsugar acceptors were also tested.

saccharose synthase = assay: Dependence on divalent metal ions; format: biochemical, rice; conditions: 1 mM of metal ions
Source text: 9. Dependence on Divalent Metal Ions

[5] = system: purified saccharose synthase from rice; assay: Substrate spectrum for the synthesis of disaccharides: variation of the nucleotide sugar, fructose as acceptor; format: biochemical; conditions: for reaction of UDP-sugar with the rice enzyme (in words): Table 4; for Relative Activity %: UDP-sugars with fructose as acceptor, 2 hours at 30° C., pH 7.5, UDP-glucose = 100
Procedure: A: Variation of the Nucleotide Sugar.
For the synthesis reaction the nucleotide sugars were varied:
The composition contained:
The composition was incubated for 2 hours at 30° C. and stopped for 5 minutes at 95° C. With HPLC, with comparison with a control (without enzyme) the development of UDP was followed.

CC1(C)S[C@@H]2[C@H](NC(=O)[C@H](N)c3ccccc3)C(=O)N2[C@H]1C(=O)O [Ampicillin, reference compound]
Relative Activity % [1]: 2.4%

Nc1nc2c(ncn2[C@@H]2O[C@H](COP(=O)(O)OP(=O)(O)O)[C@@H](O)[C@H]2O)c(=O)[nH]1 [GDP]
acceptance of the nucleosidediphosphate (rate of NDP-glucose formation) [2]: accepted in the sequence UDP, TDP, ADP, CDP and GDP

O=c1ccn([C@@H]2O[C@H](COP(=O)(O)OP(=O)(O)O)[C@@H](O)[C@H]2O)c(=O)[nH]1 [UDP]
acceptance of the nucleosidediphosphate (rate of NDP-glucose formation) [2]: accepted in the sequence UDP, TDP, ADP, CDP and GDP | Km [3]: 400 µM | Ki ([3]; with 0.9 mU enzyme, pH 6.5, 30° C., read-out: substrate excess inhibition Ki(S)): 16 mM

O=C(CO)[C@@H](O)[C@H](O)[C@@H](O)CO [L-sorbose]
acceptor of sucrose-synthase (in words) [4]: acceptors | Relative Activity % [4]: 6.0%

OCCN1CCCCC1
Relative Activity % [4]: 9.4%

O=C[C@@H](O)[C@@H](O)[C@H](O)[C@H](O)CO [D-mannose]
acceptor of sucrose-synthase (in words) [4]: acceptors | Relative Activity % [4]: 3.9%

O=C(CO)[C@@H](O)[C@H](O)[C@H](O)CO [D-fructose]
Relative Activity % [4]: 100%

OC[C@H]1O[C@@](CO)(O[C@H]2O[C@H](CO)[C@@H](O)[C@H](O)[C@H]2O)[C@@H](O[C@H]2O[C@H](CO)[C@@H](O)[C@H](O)[C@H]2O)[C@@H]1O [Melizitose]
Relative Activity % [4]: 0.6% | replacement of saccharose in the splitting reaction (in words) [1]: can replace the saccharose | Relative Activity % [1]: 0.4%

OC[C@H]1O[C@@](CO)(O[C@H]2O[C@H](CO)[C@@H](O)[C@H](O)[C@H]2O)[C@@H](O)[C@@H]1O [Saccharose]
Relative Activity % [1]: 100%

Cc1cn([C@H]2C[C@H](O)[C@@H](COP(=O)(O)OP(=O)(O)O)O2)c(=O)[nH]c1=O [TDP]
acceptance of the nucleosidediphosphate (rate of NDP-glucose formation) [2]: accepted in the sequence UDP, TDP, ADP, CDP and GDP | Km [3]: 650 µM

OC1CCNC1 (centres unmarked) [3-hydroxypyrrolidine]
Relative Activity % [4]: 6.3%

O=C[C@H](O)[C@@H](O)[C@@H](O)CO [L-arabinose]
acceptor of sucrose-synthase (in words) [4]: acceptors | Relative Activity % [4]: 3.2%

CN1CCC(O)C1 (centres unmarked) [3-hydroxy-N-methyl-pyrrolidine]
Relative Activity % [4]: 1.9%

C[C@H](O)[C@@H](O)[C@H](O)C(=O)CO [6-desoxy-L-sorbase]
Relative Activity % [4]: 8.8%

[Fe+2] [Fe^2+]
influence of metal ions on the enzyme activity (saccharose synthase): completely inactivated

OCC(O)CN1CCCC1 (centres unmarked) [3-pyrrolidino-1,2-propandiol]
Relative Activity % [4]: 9.6%

Nc1ncnc2c1ncn2[C@@H]1O[C@H](COP(=O)(O)OP(=O)(O)O)[C@@H](O)[C@H]1O [ADP]
acceptance of the nucleosidediphosphate (rate of NDP-glucose formation) [2]: accepted in the sequence UDP, TDP, ADP, CDP and GDP

OC[C@H]1O[C@@](CO)(O[C@@H]2C[C@@H](O)[C@H](O)[C@@H](CO)O2)[C@@H](O)[C@@H]1O [2-deoxy-saccharose]
Relative Activity % [1]: 55%

O=C[C@@H](O)[C@@H](O)[C@H](O)CO [D-lyxose]
acceptor of sucrose-synthase (in words) [4]: acceptors | Relative Activity % [4]: 14.7%

OC[C@@]12OC[C@@H](O1)[C@@H](O)[C@@H](O)[C@@H]2O [Sedoheptulose Anhydride]
Relative Activity % [4]: 1.1%

CCCCCCCCO[C@@H]1O[C@H](CO)[C@@H](O)[C@H](O)[C@H]1O [Octyl-β-D-glucopyranoside]
acceptor of sucrose-synthase (in words) [4]: acceptors | Relative Activity % [4]: 0.5%

[Cu+2] [Cu^2+]
influence of metal ions on the enzyme activity (saccharose synthase): completely inactivated

O=C(CO)[C@H](O)[C@H](O)[C@H](O)CO [D-psicose]
Relative Activity % [4]: 14.1%

CC(C)[C@@H](O)[C@H](O)C(=O)CO [5,6-dideoxy-5-methyl-D-fructose]
Relative Activity % [4]: 19.0%

O=c1ccn([C@@H]2O[C@H](COP(=O)(O)OP(=O)(O)O[C@H]3OC[C@@H](O)[C@H](O)[C@H]3O)[C@@H](O)[C@H]2O)c(=O)[nH]1 [UDP-xylose]
reaction of UDP-sugar with the rice enzyme (in words) [5]: can be reacted with the rice enzyme | Relative Activity % [5]: 1.7%

CC(=O)[C@@H](O)[C@H](O)C(=O)CO [5-keto-6-deoxy-D-fructose]
Relative Activity % [4]: 25.1%

[Mn+2] [Mn^2+]
influence of metal ions on the enzyme activity (saccharose synthase): influenced only slightly | influence of metal ions on the enzyme activity, TDP as the substrate (saccharose synthase): stimulation of the enzyme activity

Nc1ccn([C@@H]2O[C@H](COP(=O)(O)OP(=O)(O)O)[C@@H](O)[C@H]2O)c(=O)n1 [CDP]
acceptance of the nucleosidediphosphate (rate of NDP-glucose formation) [2]: accepted in the sequence UDP, TDP, ADP, CDP and GDP

O=C(CO)[C@@H](O)[C@@H](O)[C@H](O)CO [D-tagatose]
Relative Activity % [4]: 28.3%

OC[C@H]1O[C@H](OC[C@H]2OC(O)(CO)[C@@H](O)[C@@H]2O)[C@H](O)[C@@H](O)[C@@H]1O (some centres unmarked) [Isomaltulose]
Relative Activity % [4]: 3.1% | replacement of saccharose in the splitting reaction (in words) [1]: can replace the saccharose | Relative Activity % [1]: 1.0%

O=C(CO)[C@@H](O[C@H]1O[C@H](CO)[C@@H](O)[C@H](O)[C@H]1O)[C@H](O)[C@H](O)CO [Turanose]
Relative Activity % [4]: 0.5%

CCN1CCC(O)C1 (centres unmarked) [1-ethyl-3-hydroxy-pyrrolidine]
Relative Activity % [4]: 10.4%

[Ca+2] [Ca^2+]
influence of metal ions on the enzyme activity, TDP as the substrate (saccharose synthase): stimulation of the enzyme activity

OC[C@H]1O[C@H](OC[C@H]2O[C@H](O[C@]3(CO)O[C@H](CO)[C@@H](O)[C@@H]3O)[C@H](O)[C@@H](O)[C@@H]2O)[C@H](O)[C@@H](O)[C@H]1O [Raffinose]
acceptor of sucrose-synthase (in words) [4]: can also serve as acceptors | Relative Activity % [4]: 8.4% | replacement of saccharose in the splitting reaction (in words) [1]: can replace the saccharose | Relative Activity % [1]: 3.8%

O[C@@H]1[C@@H](O)[C@@H]2OC[C@@H](O2)[C@H]1O [1,6-Anhydroglucose]
acceptor of sucrose-synthase (in words) [4]: acceptors | Relative Activity % [4]: 9.1%

CC(=O)N[C@H]1[C@@H](OP(=O)(O)OP(=O)(O)OC[C@H]2O[C@@H](n3ccc(=O)[nH]c3=O)[C@H](O)[C@@H]2O)O[C@H](CO)[C@@H](O)[C@@H]1O [UDP-N-acetylglucosamine]
reaction of UDP-sugar with the rice enzyme (in words) [5]: can be reacted with the rice enzyme | Relative Activity % [5]: 1.8%

O=C(CO)[C@@H](O)[C@H](O)CO [D-xylulose]
acceptor of sucrose-synthase (in words) [4]: acceptors | Relative Activity % [4]: 40.7%

CC[C@@H](O)[C@H](O)C(=O)CO [5,6-dideoxy-D-fructose]
Relative Activity % [4]: 7.6%

CN1[C@@H]2CC[C@H]1C[C@@H](O)C2 [Tropin]
Relative Activity % [4]: 10.3%

[Mg+2] [Mg^2+]
influence of metal ions on the enzyme activity (saccharose synthase): influenced only slightly

OC[C@H]1O[C@@H](O[C@@H]2[C@@H](CO)OC(O)(CO)[C@H]2O)[C@H](O)[C@@H](O)[C@H]1O (mixture of isomers) [Lactulose]
acceptor of sucrose-synthase (in words) [4]: can also serve as acceptors | Relative Activity % [4]: 12.3%
